Experimental data reported in patent US11000491B2, “Amino-aryl-benzamide compounds and methods of use thereof” (HEPANOVA, INC., priority 2017, dated 2021).
Where two headings read alike, the source gives them in different places. Values belong to the compound of their own block, whether it stands above or below them.

Tests used:
Format in all cases: cell-based
[1] = system: SREBP-2; experiment: SREBP-2 expression in cultured primary human hepatocytes; settings: procedure of Example 6, read-out: SREBP-2 mRNA inhibition (EC50)
In short: (§1)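 Primary human hepatocytes in culture exposed to a range of HPN-01 derivative concentrations; SREBP-1 and SREBP-2 mRNA expression then measured to assess inhibition.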

[2] = system: Huh7 cells; experiment: LD content in Huh7 cells pre-treated with insulin, Oil-Red-O staining, absorbance OD 540 nm; settings: procedure of Example 3, read-out: LD content inhibition (EC50)
In short: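 Huh7 cells, mock-treated or pre-treated with 1 mM insulin, were then exposed to compound at the indicated amounts. Lipid droplets stained with Oil Red O and quantified by absorbance at OD 540 nm.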

[3] = system: SREBP-1; experiment: SREBP-1 expression in cultured primary human hepatocytes; settings: procedure of Example 6, read-out: SREBP-1 mRNA inhibition (EC50)
In short: as §1

[4] = Homo sapiens, Huh-7, Huh7 cells

Compound: NC(=O)c1cc(/C=C/c2ccc(Br)cc2)cc(-c2ccc(S(N)(=O)=O)cc2)c1N [HPN-01109, (E)-2-amino-5-(4-bromostyryl)-4′-sulfamoyl-[1,1′-biphenyl]-3-carboxamide]
- EC50 ([1]; Homo sapiens, Hepatocyte): 4.46 µM
- EC50 [2, 4]: 1.37 µM
- EC50 ([3]; Homo sapiens, Hepatocyte): 2.71 µM

Compound: CCOc1ccc(NC(=O)/C=C/c2cc(C(N)=O)c(N)c(-c3ccc(S(N)(=O)=O)cc3)c2)cc1 [HPN-01129, (E)-2-amino-5-(3-((4-ethoxyphenyl)amino)-3-oxoprop-1-en-1-yl)-4′-sulfamoyl-[1,1′-biphenyl]-3-carboxamide]
- EC50 ([1]; Homo sapiens, Hepatocyte): 3.1 µM
- EC50 [2, 4]: 0.29 µM
- EC50 ([3]; Homo sapiens, Hepatocyte): 1.69 µM

Compound: CC(=O)Oc1ccc(-c2cc(C(N)=O)c(N)c(-c3ccc(S(N)(=O)=O)cc3)c2)cc1 [HPN-01304, 4′-amino-5′-carbamoyl-4″-sulfamoyl-[1,1′:3′,1″-terphenyl]-4-yl acetate]
- EC50 ([1]; Homo sapiens, Hepatocyte): 2.77 µM
- EC50 [2, 4]: 0.83 µM
- EC50 ([3]; Homo sapiens, Hepatocyte): 1.54 µM

Compound: NC(=O)c1cc(/C=C/C(=O)O)cc(-c2ccc(S(N)(=O)=O)cc2)c1N [HPN-01113, (E)-3-(6-amino-5-carbamoyl-4′-sulfamoyl-[1,1′-biphenyl]-3-yl)acrylic acid]
- EC50 ([1]; Homo sapiens, Hepatocyte): 0.97 µM
- EC50 [2, 4]: 0.33 µM
- EC50 ([3]; Homo sapiens, Hepatocyte): 0.69 µM

Compound: COc1ccc(C(=O)OCC#Cc2cc(C(N)=O)c(N)c(-c3ccc(S(N)(=O)=O)cc3)c2)cc1 [HPN-01218, 3-(6-amino-5-carbamoyl-4′-sulfamoyl-[1,1′-biphenyl]-3-yl)prop-2-yn-1-yl 4-methoxybenzoate]
- EC50 ([1]; Homo sapiens, Hepatocyte): 6.51 µM
- EC50 [2, 4]: 0.99 µM
- EC50 ([3]; Homo sapiens, Hepatocyte): 4.54 µM

Compound: CC(C)OC(=O)c1ccc(-c2cc(C(N)=O)c(N)c(-c3ccc(S(N)(=O)=O)cc3)c2)cc1 [HPN-01303, isopropyl 4′-amino-5′-carbamoyl-4″-sulfamoyl-[1,1′:3′,1″-terphenyl]-4-carboxylate]
- EC50 ([1]; Homo sapiens, Hepatocyte): 10.5 µM
- EC50 [2, 4]: 1.3 µM
- EC50 ([3]; Homo sapiens, Hepatocyte): 6.62 µM

Compound: CCOC(=O)c1ccc(-c2cc(C(N)=O)c(N)c(-c3ccc(S(N)(=O)=O)cc3)c2)cc1 [HPN-01302, ethyl 4′-amino-5′-carbamoyl-4″-sulfamoyl-[1,1′:3′,1″-terphenyl]-4-carboxylate]
- EC50 ([1]; Homo sapiens, Hepatocyte): 4.52 µM
- EC50 [2, 4]: 1.03 µM
- EC50 ([3]; Homo sapiens, Hepatocyte): 3.16 µM

Compound: (E)-2-amino-5-styryl-4′-sulfamoyl-[1,1′-biphenyl]-3-carboxamide [HPN-01101]
- EC50 [1]: 6.98 µM
- EC50 ([2]; Huh7 cells): 0.57 µM
- EC50 [3]: 2.96 µM

Compound: furan-2-ylmethyl (E)-3-(6-amino-5-carbamoyl-4′-sulfamoyl-[1,1′-biphenyl]-3-yl)acrylate [HPN-01124]
- EC50 [1]: 3.25 µM
- EC50 ([2]; Huh7 cells): 0.67 µM
- EC50 [3]: 1.86 µM

Compound: CC(=O)Oc1ccc(/C=C/c2cc(C(N)=O)c(N)c(-c3ccc(S(N)(=O)=O)cc3)c2)cc1 [HPN-01105, (E)-4-(2-(6-amino-5-carbamoyl-4′-sulfamoyl-[1,1′-biphenyl]-3-yl)vinyl)phenyl acetate]
- EC50 ([1]; Homo sapiens, Hepatocyte): 5.26 µM
- EC50 [2, 4]: 1.09 µM
- EC50 ([3]; Homo sapiens, Hepatocyte): 3.24 µM

Compound: CCCCCCCOC(=O)/C=C/c1cc(C(N)=O)c(N)c(-c2ccc(S(N)(=O)=O)cc2)c1 [HPN-01118, heptyl (E)-3-(6-amino-5-carbamoyl-4′-sulfamoyl-[1,1′-biphenyl]-3-yl)acrylate]
- EC50 ([1]; Homo sapiens, Hepatocyte): 2.51 µM
- EC50 [2, 4]: 0.84 µM
- EC50 ([3]; Homo sapiens, Hepatocyte): 2.34 µM

Compound: NC(=O)c1cc(C#Cc2ccccc2)cc(-c2ccc(S(N)(=O)=O)cc2)c1N [HPN-01202, 2-amino-5-(phenylethynyl)-4′-sulfamoylbiphenyl-3-carboxamide]
- EC50 ([1]; Homo sapiens, Hepatocyte): 0.9 µM
- EC50 [2, 4]: 0.29 µM
- EC50 ([3]; Homo sapiens, Hepatocyte): 0.64 µM

Compound: NC(=O)c1cc(/C=C/C(=O)Nc2ccc(C(=O)O)cc2)cc(-c2ccc(S(N)(=O)=O)cc2)c1N [HPN-01121, (E)-4-(3-(6-amino-5-carbamoyl-4′-sulfamoyl-[1,1′-biphenyl]-3-yl)acrylamido)benzoic acid]
- EC50 ([1]; Homo sapiens, Hepatocyte): 8.04 µM
- EC50 [2, 4]: 2.14 µM
- EC50 ([3]; Homo sapiens, Hepatocyte): 6.59 µM

Compound: 2-amino-5-((4-fluorophenyl)ethynyl)-4′-sulfamoylbiphenyl-3-carboxamide [HPN-01203]
- EC50 [1]: 2.1 µM
- EC50 ([2]; Huh7 cells): 0.55 µM
- EC50 [3]: 1.7 µM

Compound: decyl (E)-3-(6-amino-5-carbamoyl-4′-sulfamoyl-[1,1′-biphenyl]-3-yl)acrylate [HPN-01119]
- EC50 [1]: 4.17 µM
- EC50 ([2]; Huh7 cells): 1.08 µM
- EC50 [3]: 2.71 µM

Compound: NC(=O)c1cc(C#CCO)cc(-c2ccc(S(N)(=O)=O)cc2)c1N [HPN-01201, 2-amino-5-(3-hydroxyprop-1-ynyl)-4′-sulfamoylbiphenyl-3-carboxamide]
- EC50 ([1]; Homo sapiens, Hepatocyte): 6.85 µM
- EC50 [2, 4]: 1.2 µM
- EC50 ([3]; Homo sapiens, Hepatocyte): 3.16 µM

Compound: CCCC(=O)OCC#Cc1cc(C(N)=O)c(N)c(-c2ccc(S(N)(=O)=O)cc2)c1 [HPN-01224, 3-(6-amino-5-carbamoyl-4′-sulfamoyl-[1,1′-biphenyl]-3-yl)prop-2-yn-1-yl butyrate]
- EC50 ([1]; Homo sapiens, Hepatocyte): 2.57 µM
- EC50 [2, 4]: 0.58 µM
- EC50 ([3]; Homo sapiens, Hepatocyte): 1.58 µM

Compound: butyl (E)-3-(6-amino-5-carbamoyl-4′-sulfamoyl-[1,1′-biphenyl]-3-yl)acrylate [HPN-01117]
- EC50 [1]: 8.24 µM
- EC50 ([2]; Huh7 cells): 1.15 µM
- EC50 [3]: 6.99 µM

Compound: NC(=O)c1cc(/C=C/C(=O)OCc2ccccc2)cc(-c2ccc(S(N)(=O)=O)cc2)c1N [HPN-01120, benzyl (E)-3-(6-amino-5-carbamoyl-4′-sulfamoyl-[1,1′-biphenyl]-3-yl)acrylate]
- EC50 ([1]; Homo sapiens, Hepatocyte): 5.1 µM
- EC50 [2, 4]: 0.68 µM
- EC50 ([3]; Homo sapiens, Hepatocyte): 6.44 µM

Compound: NC(=O)c1cc(Oc2ccc(Cl)cc2)cc(-c2ccc(S(N)(=O)=O)cc2)c1N [HPN-01313, 2-amino-5-(4-chlorophenoxy)-4′-sulfamoyl-[1,1′-biphenyl]-3-carboxamide]
- EC50 ([1]; Homo sapiens, Hepatocyte): 9.41 µM
- EC50 [2, 4]: 1.76 µM
- EC50 ([3]; Homo sapiens, Hepatocyte): 5.51 µM

Compound: CC(=O)Oc1cccc(/C=C/c2cc(C(N)=O)c(N)c(-c3ccc(S(N)(=O)=O)cc3)c2)c1 [HPN-01110, (E)-3-(2-(6-amino-5-carbamoyl-4′-sulfamoyl-[1,1′-biphenyl]-3-yl)vinyl)phenyl acetate]
- EC50 ([1]; Homo sapiens, Hepatocyte): 3.6 µM
- EC50 [2, 4]: 0.81 µM
- EC50 ([3]; Homo sapiens, Hepatocyte): 2.26 µM

The next lines start with results.

- EC50 [2, 4]: 0.58 µM
Compound: NC(=O)c1cc(Nc2cccc(C(=O)O)c2)cc(-c2ccc(S(N)(=O)=O)cc2)c1N [HPN-01317, 3-((6-amino-5-carbamoyl-4′-sulfamoyl-[1,1′-biphenyl]-3-yl)amino)benzoic acid]
- EC50 ([1]; Homo sapiens, Hepatocyte): 4.32 µM
- EC50 ([3]; Homo sapiens, Hepatocyte): 3.35 µM

- EC50 [2, 4]: 1.15 µM
Compound: NC(=O)c1cc(-c2ccc(Cl)cc2)cc(NCc2ccc(S(N)(=O)=O)cc2)c1N [HPN-01426, 4-amino-4′-chloro-5-((4-sulfamoylbenzyl)amino)-[1,1′-biphenyl]-3-carboxamide]
- EC50 ([1]; Homo sapiens, Hepatocyte): 9.4 µM
- EC50 ([3]; Homo sapiens, Hepatocyte): 11 µM

- EC50 [2, 4]: 1.44 µM
Compound: NC(=O)c1cc(-c2ccc(Cl)cc2)cc(Oc2cccc(S(=O)(=O)NCCO)c2)c1N [HPN-01422, 4-amino-4′-chloro-5-(3-(N-(2-hydroxyethyl)sulfamoyl)phenoxy)-[1, 1′-biphenyl]-3-carboxamide]
- EC50 ([1]; Homo sapiens, Hepatocyte): 3.93 µM
- EC50 ([3]; Homo sapiens, Hepatocyte): 1.52 µM

- EC50 [2, 4]: 2.61 µM
Compound: NC(=O)c1cc(Nc2cccc(Cl)c2)cc(-c2ccc(S(N)(=O)=O)cc2)c1N [HPN-01315, 2-amino-5-((3-chlorophenyl)amino)-4′-sulfamoyl-[1,1′-biphenyl]-3-carboxamide]
- EC50 ([1]; Homo sapiens, Hepatocyte): 14 µM
- EC50 ([3]; Homo sapiens, Hepatocyte): 7.72 µM

- EC50 [2, 4]: 0.83 µM
Compound: NC(=O)c1cc(C2CCC(Br)CC2)cc(-c2ccc(S(N)(=O)=O)cc2)c1N (stereo not drawn) [HPN-01322, 2-amino-5-(4-bromocyclohexyl)-4′-sulfamoyl-[1,1′-biphenyl]-3-carboxamide]
- EC50 ([1]; Homo sapiens, Hepatocyte): 2.55 µM
- EC50 ([3]; Homo sapiens, Hepatocyte): 1.62 µM

- EC50 [2, 4]: 0.5 µM
Compound: CCCC(=O)Nc1ccc(-c2cc(-c3ccc(Cl)cc3)cc(C(N)=O)c2N)cc1 [HPN-01409, 4′-amino-4″-butyramido-4-chloro-[1,1′:3′,1″-terphenyl]-5′-carboxamide]
- EC50 ([1]; Homo sapiens, Hepatocyte): 1.42 µM
- EC50 ([3]; Homo sapiens, Hepatocyte): 1.05 µM

- EC50 [2, 4]: 1.5 µM
Compound: CCC(=O)Nc1ccc(-c2cc(-c3ccc(Cl)cc3)cc(C(N)=O)c2N)cc1 [HPN-01408, 4′-amino-4-chloro-4″-propionamido-[1,1′:3′,1″-terphenyl]-5′-carboxamide]
- EC50 ([1]; Homo sapiens, Hepatocyte): 4.37 µM
- EC50 ([3]; Homo sapiens, Hepatocyte): 2.55 µM

- EC50 [2, 4]: 0.32 µM
Compound: Nc1c(C(=O)Nc2ccc(O)c(O)c2)cc(-c2ccc(Cl)cc2)cc1-c1ccc(S(N)(=O)=O)cc1 [HPN-01617, 4′-amino-4-chloro-N-(3,4-dihydroxyphenyl)-4″-sulfamoyl-[1,1′:3′,1″-terphenyl]-5′-carboxamide]
- EC50 ([1]; Homo sapiens, Hepatocyte): 3.68 µM
- EC50 ([3]; Homo sapiens, Hepatocyte): 1.88 µM

- EC50 [2, 4]: 2.07 µM
Compound: NC(=O)c1cc(-c2ccc(Cl)cc2)cc(Oc2cccc(S(N)(=O)=O)c2)c1N [HPN-01412, 4-amino-4′-chloro-5-(3-sulfamoylphenoxy)-[1,1′-biphenyl]-3-carboxamide]
- EC50 ([1]; Homo sapiens, Hepatocyte): 6.11 µM
- EC50 ([3]; Homo sapiens, Hepatocyte): 3.09 µM

- EC50 [2, 4]: 0.66 µM
Compound: NC(=O)c1cc(-c2ccc(Br)cc2)cc(Oc2cccc(S(N)(=O)=O)c2)c1N [HPN-01415, 4-amino-4′-bromo-5-(3-sulfamoylphenoxy)-[1, 1′-biphenyl]-3-carboxamide]
- EC50 ([1]; Homo sapiens, Hepatocyte): 6.45 µM
- EC50 ([3]; Homo sapiens, Hepatocyte): 2.35 µM

- EC50 [2, 4]: 22.8 µM
Compound: Nc1c(-c2ccc(S(N)(=O)=O)cc2)cc(-c2ccc(Br)cc2)cc1N1CCNCC1 [HPN-01622, 6′-amino-4″-bromo-5′-(piperazin-1-yl)-[1,1′:3′,1″-terphenyl]-4-sulfonamide]
- EC50 ([1]; Homo sapiens, Hepatocyte): 50.8 µM
- EC50 ([3]; Homo sapiens, Hepatocyte): 37.1 µM

- EC50 [2, 4]: 1.67 µM
Compound: CC(=O)Nc1c(C(N)=O)cc(-c2ccc(Cl)cc2)cc1-c1ccc(S(N)(=O)=O)cc1 [HPN-01501, 4′-acetamido-4-chloro-4″-sulfamoyl-[1,1′:3′,1″-terphenyl]-5′-carboxamide]
- EC50 ([1]; Homo sapiens, Hepatocyte): 8.55 µM
- EC50 ([3]; Homo sapiens, Hepatocyte): 5.04 µM
